The text below walks through data of the METLIN SMRT retention time set (Domingo-Almenara et al. 2019).

This data set can be described thus: gradient 5% acetonitrile 3 min, to 50% in 2 min, to 85% in 15 min, held 3 min, 100 µL/min. Particulars: column: Zorbax Extend-C18 2.1 x 50 mm; eluents: water / acetonitrile, 0.1% formic acid. In a few lines: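 Pure standards were analyzed in mixtures of ~100 molecules using HPLC coupled to a quadrupole time-of-flight mass spectrometer, in both positive and negative ionization mode. Separation used a Zorbax Extend-C18 column (2.1 × 50 mm, 1.8 μm) at 100 μL/min, with water and acetonitrile each containing 0.1% formic acid. Dead and dwell volumes were 40 μL and 900 μL, and data were collected over 3 months. Retention time was read from computationally picked adduct peaks, each inspected manually.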
Take `CCCNC(=O)C1CCCN(c2nc3ncn(CC(=O)Nc4ccc5c(c4)OCO5)c(=O)c3s2)C1` (configuration not stated): the RP-LC retention time stood at 640 s.
In turn, `O=C1NCCCCCCN(C(=O)Nc2ccc3c(c2)OCCO3)[C@H]2CCCC[C@@H]12` yielded an RP-LC retention time of 808 s.
Regarding `Cc1ccc2c(=O)c3c([nH]c2c1C)CCN(CC(=O)Nc1cc(F)cc(F)c1)C3`, the RP-LC retention time came to 638 s.
The figure for `COc1cccc(CCN2CC(=O)N(c3ccc(C)c(C)c3)[C@@H]3CS(=O)(=O)C[C@@H]32)c1` is 872 s; for `O=S(=O)(Nc1ccc(-c2noc(COc3ccc(Cl)cc3)n2)cc1)c1cccs1` it is 1120 s.
Consider `O=C(Cn1ccn(-c2ccc3c(c2)OCCO3)c(=O)c1=O)Nc1ccccc1F`, for which the RP-LC retention time is 655 s.
With `CN(C)C(=O)CCc1ccc2c(c1)CN(C(=O)CC1CCCC1)CCO2` the figure was 781 s; with `Cc1nc(-c2noc(-c3ccncc3)n2)cn1CC(=O)Nc1cccc(F)c1`, 833 s.
`Cc1ccc(-c2cc3n(n2)CCCN(C(=O)c2n[nH]c4ccccc24)C3)cc1` had an RP-LC retention time of 850 s.
Take `CCc1ccc2ncc(C#N)c(N3CCC(C(=O)NCc4ccc(F)cc4)CC3)c2c1`: the RP-LC retention time amounted to 710 s.
In the case of `Cc1ccccc1NC(=O)C1(C)Oc2cccnc2NC1=O` (configuration not stated), the RP-LC retention time is 673 s.
The figure for `COc1ccc(-c2csc(Nc3cccnc3)n2)cc1` is 656 s.
The figure for `CCCc1ccc(S(=O)(=O)N2CCC(C(=O)NCCc3csc(-c4ccccc4)n3)CC2)cc1` is 1100 s.
For the molecule `Cc1noc2nc(CCC(=O)NCCCN3CCc4ccccc4C3)nc(N3CCCCC3)c12`, the RP-LC retention time was 670 s.
The figure for `O=C(NCCc1cccs1)c1cccc2[nH]cc(CN3CCOCC3)c12` is 592 s; for `CN1C(=O)C(c2c[nH]c3ccccc23)=C(c2c[nH]c3ccccc23)C1=O` it is 868 s.
The figure for `O=C(NCC(c1cccnc1)c1c[nH]c2ccccc12)Nc1cccc(Br)c1` (configuration not stated) is 714 s; for `COc1ccc(CNC2=NCCNC23CCN(S(=O)(=O)c2ccc(C)c(C)c2)CC3)cc1` it is 775 s.
Molecule `CC1CCCCN1CCCNC(=O)CCCN1C(=O)CCn2nc(-c3cccn3C)cc21` (configuration not stated) returned an RP-LC retention time of 545 s.
As to `Cc1ccc(S(=O)(=O)N2CCC(n3cnnc3-c3ccccc3)CC2)c(C)c1`, the RP-LC retention time came out at 844 s.
`Cc1nc2ccc(C(=O)NC3CCN(C)CC3)cc2nc1C` gave an RP-LC retention time of 566 s.
As to `CCN(CC)C(=O)c1ccc2c(c1)N(CC(=O)N1CCCCC1)C(=O)C1CCCCN21` (configuration not stated), the RP-LC retention time came to 795 s.
The figure for `CSc1ccccc1C(=O)NCC1CCN(C(=O)c2ccccc2F)CC1` is 704 s; for `CCn1cc(CCNC(=O)c2cncc(Br)c2)c2cccnc21` it is 699 s.
In the case of `Cc1ccc(NC(=O)N2CCC(CC(=O)N3CCCCC3)CC2)cc1F`, the RP-LC retention time was 813 s.
With `CC(C)Cc1nc(N2CCN(C(=O)c3ccco3)CC2)c(C#N)c2c1COC(C)(C)C2` the figure was 1180 s; with `O=C(N[C@@H]1CN(Cc2ccsc2)CC[C@@H]1CO)c1ccccc1`, 591 s; with `Clc1ccccc1-c1noc(Cc2nnc(-c3ccccc3)o2)n1`, 978 s.
The molecule `O=C(CCSc1nnnn1-c1ccc(Cl)cc1)Nc1nccs1` had an RP-LC retention time of 776 s.
The figure for `CCc1nnc(-c2ccc3ccn(CC(=O)NCc4cc(OC)c(OC)c(OC)c4)c3c2)o1` is 760 s; for `CN(C)S(=O)(=O)c1ccc2c(c1)N(CC(=O)Nc1cccc(F)c1)C(=O)C1CCCCN21` (configuration not stated) it is 928 s; for `Cc1nn(C)c(C)c1S(=O)(=O)N1[C@H]2CC[C@@H]1c1cnc(-c3ccccc3)nc1C2` it is 865 s.
`Cc1nn(-c2ccccc2)c(C)c1CCc1nnc2sc(-c3ccc(N(C)C)cc3)nn12` returned an RP-LC retention time of 1020 s.
With `COc1ccc(C2(C(=O)N3CCC(c4noc(-c5cccc(OC)c5)n4)CC3)CC2)cc1` the figure was 1040 s; with `Cc1ccc(S(=O)(=O)N2CC(Cc3nncn3C3CCCC3)C2)cc1Cl`, 795 s.
On to `COc1cccc(C2Cn3nnc(-c4nc(-c5ccc(SC)cc5)no4)c3CO2)c1` (configuration not stated), for which the RP-LC retention time came to 1200 s.
The figure for `COc1ccc(C(=O)N2C[C@@H]3C[C@H](NC(=O)c4ccccc4)[C@H]2C3)c(OC)c1` is 716 s.
Turning to `Cc1nn(C(C)C(=O)NCCc2ccccc2)c(=O)c2c(-n3cccc3)n(-c3ccccc3)nc12` (configuration not stated), the RP-LC retention time turned out to be 1070 s.
`NC(=O)c1cnc(N[C@@H]2CCCC[C@@H]2N)nc1Nc1cccc(-n2nccn2)c1` registered an RP-LC retention time of 654 s.
`Cc1ccc(NC(=O)C2CCN(C(=O)c3ncn4c3COC(c3ccc(F)cc3)C4)CC2)cc1` (configuration not stated) gave an RP-LC retention time of 804 s.
The figure for `CCOC(=O)NCc1nc(COc2ccc(OC)cc2)no1` is 727 s; for `CCC(=O)NCCc1csc(C2CCN(C(=O)CC3CCCCC3)CC2)n1` it is 765 s.
The figure for `Cc1ccc(-n2c(N3CCCC(C(=O)NCCC(C)C)C3)nc3ccsc3c2=O)cc1` (configuration not stated) is 955 s; for `Cc1c(C(=O)NCCOc2cccc(C(F)(F)F)c2)cccc1[N+](=O)[O-]` it is 893 s; for `Cc1cc2c(cc1S(=O)(=O)N1CCCC1C(=O)Nc1ccccc1)OC(C)C(=O)N2` (configuration not stated) it is 777 s.
`Cc1cccc(-n2ncc(C(=O)N3CCN(c4ccccn4)CC3)c2-n2cccc2)c1` yielded an RP-LC retention time of 688 s.
Molecule `COc1ccccc1-c1nnc(NC(=O)c2ccc3c(c2)CCCC3)o1` gave an RP-LC retention time of 822 s.
The figure for `Clc1ccc(-c2nc(-c3ccc4c(c3)ncn4CCN3CCOCC3)no2)cc1` is 683 s; for `Cn1cnc2ccc(-c3noc(-c4cccc(NC(=O)c5ccco5)c4)n3)cc21` it is 682 s; for `CCCOc1nn(CCC)cc1C(=O)NCc1ccccc1Cl` it is 1010 s.
`Cn1nc(C(=O)N2CCCC(C(=O)NC3CC3)C2)c2c1CCN(C(=O)Cc1ccc(Cl)cc1)C2` (configuration not stated): the RP-LC retention time turned out to be 693 s.
Consider `Cc1ccc(=O)n(CCNC(=O)c2cncc(Br)c2)n1`, for which the RP-LC retention time came to 579 s.
Regarding `COC(=O)c1cc(S(=O)(=O)N2CCCC2C(=O)Nc2ccc(F)c(Cl)c2)cn1C` (configuration not stated), the RP-LC retention time amounted to 978 s.
The molecule `Cc1ccc(-n2c(N3CCCC(C(=O)Nc4ccc(C)c(F)c4)C3)nc3ccsc3c2=O)cc1` (configuration not stated) had an RP-LC retention time of 1070 s.
With `COc1cccc(C2Cn3nnc(-c4nc(-c5cccc(Cl)c5)no4)c3CO2)c1` (configuration not stated) the figure was 1250 s; with `CN(CCNC(=O)Cn1c2ccccc2c2cnn(C)c(=O)c21)Cc1ccccc1`, 640 s; with `Cc1ccc2nc(-c3ccc(NC(=O)c4cc5cccnc5n(C)c4=O)cc3)sc2c1`, 864 s.
